Assay in one series: not given
Conditions: not given
By logP is commonly meant a log measure of how a compound divides between an organic and an aqueous phase. Lower therefore signals lower lipophilicity. In the case of `CCC1(c2ccccc2)C(=O)NC(=O)N=C1OC(C)C` (configuration not stated), the logP amounted to 2.22.

`CCC1(CC)C(=O)N=C(OC(C)C)NC1=O` returned a logP of 1.44.

Regarding `CCC1(CC)C(=O)NC(=O)N(C(C)C)C1=O`, the logP is 2.36.

Consider `CCC1(c2ccccc2)C(=O)N=C(OC(C)C)NC1=O` (configuration not stated), for which the logP came to 1.79.

Assay in a further series: not given
Conditions: not given
The source holds these as a separate data set.
Consider `C#CCc1ccc(COC(=O)C2C(C=C(C)C)C2(C)C)o1` (configuration not stated), for which the logP turned out to be 6.67.

As for `CC(=O)OC(c1ccc(Cl)c(Cl)c1)C(Cl)(Cl)Cl` (configuration not stated), the logP came out at 4.92.

For the compound `COCc1ccc(COC(=O)C2C(C=C(C)C)C2(C)C)cc1` (configuration not stated), the logP was found to be 4.5.

As to `CC1(C)C(/C=C(\Cl)C(F)(F)F)C1C(=O)OC(C#N)c1cccc(Oc2ccccc2)c1` (configuration not stated), the logP was determined as 6.02.

Assay in another series: not given
Conditions: not given
The source holds these as a separate data set.
The compound `CCCOC(=O)OC[C@@H]1O[C@H](n2ccc(N)nc2=O)CS1` returned a logP of 0.22.

The compound `CC(C)OC(=O)OC[C@@H]1O[C@H](n2ccc(N)nc2=O)CS1` registered a logP of 0.1.

For the compound `CCCCCOC(=O)OC[C@@H]1O[C@H](n2ccc(N)nc2=O)CS1`, the logP worked out at 1.2.

`CCOC(=O)OC[C@@H]1O[C@H](n2ccc(N)nc2=O)CS1`: the logP is -0.25.

Assay in the next series: not given
Conditions: not given
The source holds these as a separate data set.
The compound `CCOC(=O)c1ccc2cccccc1-2` came in with a logP of 3.83.

With `NC(=O)Cc1ccc2cccccc1-2`, the logP stood at 2.48.

The compound `O=[N+]([O-])c1ccc2cccccc1-2` registered a logP of 2.59.

Staying with this series, now noted: pH 3.4.
Broadly, the logD is the decadic logarithm of the distribution of all forms, ionised or not, between an organic phase and buffer at a given pH. A high value points to a more lipophilic compound. With `O=C(O)c1ccc2cccccc1-2`, the logD was found to be 2.88.

Assay in a further series: not given
Conditions: not given
The source holds these as a separate data set.
For `O=C(O)c1cccc(Oc2ccccc2)c1`, the lipophilicity (logP) is 3.6.

`CC[C@H]1CCC[C@H](O[C@H]2CC[C@H](N(C)C)[C@@H](C)O2)[C@@H](C)C(=O)C2=C[C@@H]3[C@@H](C=C(C)[C@@H]4C[C@@H](O[C@@H]5O[C@@H](C)[C@H](OC)[C@@H](OC)[C@H]5OC)C[C@@H]34)[C@@H]2CC(=O)O1` came in with a logP of 4.92.

For `O=C(O)COc1ccc(Cl)cc1Cl`, the logP amounted to 2.71.

Take `O=C(O)c1ccccc1C(=O)O`: the logP is 0.87.

Assay in a further series: not given
Conditions: not given
The source holds these as a separate data set.
`CCOP(=S)(OCC)Oc1cc(-c2ccccc2)on1` returned a logP of 4.58.

For the compound `O=C(Nc1ccccc1)N(Cc1ccc(Cl)cc1)C1CCCC1`, the logP was 4.7.

Turning to `O=C1OCc2c(Cl)c(Cl)c(Cl)c(Cl)c21`, the logP came out at 3.22.

`COP(=S)(OC)Oc1c(Cl)cc(C)cc1Cl`: the logP was determined as 4.36.

Another series can be described thus: method code SF-AS, from PMID: 8197227. Conditions: pH 7.4.
For `Cc1csc(NNC(=O)c2ccc3c(c2)OCO3)n1`, the logD came out at 1.41.

For `O=C(NNc1nccs1)c1ccc2c(c1)OCO2`, the logD came out at 1.06.

For `NC(=S)NNC(=O)c1ccc2c(c1)OCO2`, the logD is 0.21.

In turn, `C(=NNc1nccs1)c1ccc2c(c1)OCO2` returned a logD of 1.5.

Assay in a further series: not given
Conditions: not given
This is another data set of the same source.
On to `S=c1ssc2c1CCCCCCCCCC2`, for which the logP was 5.8.

Compound `CC1(C)C2Cc3ssc(=S)c3C1C2` (configuration not stated) displayed a logP of 3.52.

The compound `S=c1ssc(Cc2ccccc2)c1-c1ccccc1` displayed a logP of 4.29.

`CCc1c(-c2ccccc2)ssc1=S` had a logP of 4.31.

Assay in a further series: not given
Conditions: not given
The source holds these as a separate data set.
In turn, `Cc1ccccc1CCN` had a logP of 1.6.

With `OCCCNc1ccccc1`, the logP worked out at 0.57.

Turning to `NCCCCc1ccccc1`, the logP is 2.25.

Consider `Cc1ccc(CCN)cc1`, for which the logP stood at 1.83.

Assay in another series: not given
Conditions: not given
The source holds these as a separate data set.
With `O=C(O)CCCCCCCCCCCOC(=O)Oc1ccccc1`, the logP is 4.26.

As for `O=C(O)COC(=O)Oc1ccccc1`, the logP is 1.72.

Regarding `O=C(O)CCCCCCCCCCCCCCCOC(=O)Oc1ccccc1`, the logP was 4.67.

Consider `O=C(O)CCCCCCCOC(=O)Oc1ccccc1`, for which the logP was 3.39.

Assay in the next series: not given
Conditions: not given
This is another data set of the same source.
As for `CCCCNCc1ccc(C)cc1`, the logP came out at 3.49.

In turn, `CCCCCCCNCc1ccc(C)cc1` gave a logP of 5.12.

Turning to `CCCCCCNCc1ccc(C)cc1`, the logP was 4.96.

As for `CCNCc1ccc(C)cc1`, the logP amounted to 2.38.

The nature of a further series: method code SF-C, from DOI: 10.1038/194178b0.
Conditions: not given
`CC(=O)c1cccc(OCC(=O)O)c1` returned a logP of 1.34.

In turn, `Cc1cccc(OCC(=O)O)c1` yielded a logP of 1.88.

In turn, `N#Cc1cccc(OCC(=O)O)c1` had a logP of 1.2.

For the compound `O=C(O)COc1cccc(C(F)(F)F)c1`, the logP came out at 2.52.

Assay in a further series: not given
Conditions: not given
This is another data set of the same source.
On to `CS(=O)(=O)NCCN1CCc2cccc(Cl)c2CC1`, for which the logP is 2.51.

In the case of `CCCN1CCc2cccc(Cl)c2CC1`, the logP came out at 3.5.

`COCCN1CCc2cccc(Cl)c2CC1` had a logP of 3.

Regarding `Clc1cccc2c1CCNCC2`, the logP amounted to 2.4.

A short description of another series: method code G-GLC, from DOI: 10.1021/je00036a027.
Conditions: not given
Turning to `Clc1cc(Cl)c(-c2ccccc2)cc1Cl`, the logP came out at 5.51.

Turning to `Clc1cc(Cl)c(-c2ccccc2)c(Cl)c1`, the logP is 5.47.

The compound `Clc1cccc(Cl)c1-c1ccccc1` came in with a logP of 4.93.

`Clc1c(Cl)c(Cl)c(-c2ccccc2)c(Cl)c1Cl` showed a logP of 6.3.

A further series in a line: method code SF-AS, from DOI: 10.1002/ps.2780370107. Conditions: pH 0.0.
`CCOP(=O)(O)Cc1ccccc1` registered a logD of 0.81.

`CCOP(=O)(O)Cc1ccc(-c2ccccc2)cc1`: the logD worked out at 2.37.

Regarding `CCOP(=O)(O)Cc1ccc(S(C)(=O)=O)cc1`, the logD was -0.4.

The compound `CCOP(=O)(O)Cc1ccc(F)cc1` had a logD of 1.25.

The nature of the next series: method code SF-HPLC, from DOI: 10.1016/0378-5173(87)90096-2. The settings on record: pH 8.0.
Consider `NC(=O)CCCc1ccccn1`, for which the logD stood at 0.06.

`NC(=O)Cc1ccncc1`: the logD was -0.59.

For the compound `NC(=O)Cc1cccnc1`, the logD was -0.59.

Consider `NC(=O)Cc1ccccn1`, for which the logD was -0.64.

A short description of another series: method code SF-GLC, from DOI: 10.1016/s0021-9673(01)83612-8. Conditions: pH 13.0.
As to `NC1CCc2ccccc2C1` (configuration not stated), the logD amounted to 2.08.

`CN[C@H](C)[C@@H](OC)c1ccccc1` (relative stereo) gave a logD of 1.87.

For the compound `CNCCCCc1ccccc1`, the logD was determined as 2.76.

`CC(N)CC1CCCCCCC1` (configuration not stated) displayed a logD of 3.7.

The next series is described as follows: method code SF-AS, from DOI: 10.1080/00021369.1974.10861343.
Conditions: not given
As to `CCOC(=O)C=COc1ccccc1`, the logP worked out at 3.18.

`CCCOC(=O)C=COc1ccccc1`: the log partition coefficient (logP) came out at 3.72.

Still in this series, the particulars now being: pH 3.0.
In turn, `O=C(O)/C=C/Oc1ccccc1Cl` had a logD of 2.69.

Consider `O=C(O)/C=C/Oc1ccccc1`, for which the logD worked out at 2.27.

The nature of the next series: method code SF-HPLC, from DOI: 10.1002/jps.2600831027, PMID: 7884677. The settings on record: pH 2.0.
`O=C(O)Cc1ccc(C(=O)O)cc1` gave a logD of 1.24.

Compound `O=C(O)c1ccc(CCl)cc1` had a logD of 2.12.

In turn, `COCc1ccc(C(=O)O)cc1` showed a logD of 1.76.

In the case of `O=C(O)c1ccc(CO)cc1`, the logD stood at 0.92.

A short description of the next series: method code SF-AS, from DOI: 10.1111/j.1476-5381.1975.tb07619.x, PMID: 1182339. Conditions: pH 10.0.
`N=C(N)NC(=O)Nc1cccc([N+](=O)[O-])c1`: the logD stood at 1.28.

In turn, `N=C(N)NC(=O)Nc1ccc(Cl)c(Cl)c1` displayed a logD of 2.39.

The compound `COc1cc(NC(=O)NC(=N)N)ccc1C#N` had a logD of 1.28.

`COc1ccc(NC(=O)NC(=N)N)cc1` came in with a logD of 0.56.

A short description of a further series: from Pratesi, P.; Villa, L.; Ferri, V.; DeMicheli, C.; Grana, E.; Grieco, C.; Silipo, C.; Vittoria, A. (1979). On the additive-constitutive properties of substituent hydrophobic parameters in a set of ….
Conditions: not given
On to `N#CCCOc1ccccc1`, for which the logP turned out to be 1.61.

`O=S(=O)(O)c1ccc2ccccc2c1`: the logP was 1.07.

Compound `CNS(=O)(=O)c1ccccc1` had a logP of 0.92.

With `Oc1ccc(C2CCCCC2)cc1`, the logP came out at 4.22.

The next series in a line: from Sparatore, F.; Grieco, C.; Silipo, C.; Vittoria, A. (1979). Use of regression analysis to correlate auxin activity with chemical physical and structural properties of benzotriazole derivatives. III. …. The settings on record: pH 5.6.
Take `OCCCCCCn1nnc2ccccc21`: the logD was found to be 1.71.

The compound `OCCCCn1nnc2ccccc21` yielded a logD of 1.03.

On to `OCCCCCn1nc2ccccc2n1`, for which the logD came to 1.93.

As for `OCCCCn1nc2ccccc2n1`, the logD is 1.57.

Another series in a line: method code SF-AS, from M. Kuchar, J. Tomkova, V. Rejholec, & O. Roubinek. (1992). Some problems of the chromatographic evaluation of lipophicity. In Kuchar, M. (Ed.) QSAR in Design of Bioactive Compounds (pp. 65-81). Prous …. The settings on record: pH 3.4.
`CCCCCCOc1ccc(CC(=O)O)cc1` yielded a logD of 3.96.

As to `CC(C)Cc1ccc(CC(=O)O)cc1`, the logD was found to be 3.35.

With `COc1ccc(C(O)C(=O)O)cc1` (configuration not stated), the logD turned out to be 0.63.

`O=C(O)CCc1ccc(OCc2ccccc2)c(Cl)c1` returned a logD of 3.89.

(Values after the SangsterLogP compilation.)
